{"source": "patent US10953021B2", "about": "“Topical compositions of flunisolide and methods of treatment” (Lupin Limited, priority 2013, dated 2021)", "origin": "cited, not measured here", "key": {"[1]": {"settings": "McKenzie skin blanching test, versus dexamethasone"}, "[2]": {"settings": "animal anti-inflammatory assays, versus cortisol"}}, "data": [{"smiles": "CC1(C)O[C@@H]2C[C@H]3[C@@H]4C[C@H](F)C5=CC(=O)C=C[C@]5(C)[C@H]4[C@@H](O)C[C@]3(C)[C@]2(C(=O)CO)O1", "note": "[Flunisolide, 6α-fluoro-11β, 21-dihydroxy-16α,17α-(isopropylidenedioxy)pregna-1,4-diene-3,20-dione]", "values": [{"measurement": "anti-inflammatory effects relative to dexamethasone", "setting": "[1]", "result": "several hundred times more potent than dexamethasone"}, {"measurement": "anti-inflammatory potency relative to cortisol", "setting": "[2]", "result": "several hundred times more potent than cortisol"}]}]}
